Reference: patent US20250302816A1, “DISRUPTION OF EPITHELIAL BARRIERS FOR MOLECULAR DELIVERY ENHANCEMENT OR EXTRACTION OF EXTRACELLULAR FLUIDS” (The University of Nottingham, priority 2022, published 2025)

Assays:
[1] = system: human primary lung epithelium; test: Human primary lung epithelium, air-liquid interface culture: TEER, FD4 and mAb delivery; format: cell-based
Calu-3 = test: Further in vitro Transwell studies: enhancing translocation of 4 kDa FITC-dextran; format: cell-based, human
Method: Exemplary molecules (a)-(1) investigated in coarse dose-response by FD4 delivery in Transwell culture (Calu-3). Each molecule was screened at 5 nM, 1 μM, 200 μM levels.
Each compound was screened at 200 μM level.
Each molecule was screened at 5 nM, 1 μM, 200 μM levels.

ARPE-19 cell layers = test: Transwell drug transport across ARPE-19 cell layers with or without 3OC12-HSL; format: cell-based, human; conditions: doxorubicin 250 μg/ml apical, after 5 hours
Method: FIG. 1: Macromolecular therapeutics transported across ARPE-19 cell layers in the absence and presence of 3OC12-HSL transported into the basolateral chamber over a period of five hours. Permeability experiments were initiated by applying 0.5 ml of the test solutions (250 μg/ml Aflibercept/Bevacizumab/or Doxorubicin diluted in HBSS/HEPES) to the apical side of the cells (donor compartment of the Transwell) with or without 3OC12-HSL (200 μM). Drug permeability was determined by sampling the basolateral solution at regular time intervals. Data points are expressed as means±SEM, derived from three replicates in triplicate. p values of <0.05 were considered statistically significant. *, ** and *** denote p<0.05, p<0.01 and p<0.001, respectively.
Calu-3 cells obtained from American Type Culture Collection, USA were cultured using Dulbecco's Modified Eagle Medium (DMEM) supplemented with penicillin (100 U/mL), streptomycin (0.1 mg/mL), amphotericin (0.25 μg/mL), non-essential amino acids (NEM, 1%) and Fetal Bovine Serum (FBS, 10% v/v, Sigma-Aldrich, UK). The human-derived RPE cell line ARPE-19 was obtained from American Type Culture Collection. Cells were grown in Dulbecco's Modified Eagle Medium: F12 (1:1; Gibco, Invitrogen, Carlsbad, CA), including 10% inactivated fetal bovine serum, 100 units/mL penicillin, 100 μg/mL streptomycin, and 2 mM L-glutamine (Sigma-Aldrich). Caco-2 cells were grown in complete culture medium (DMEM supplemented with 17% FBS and 1% antibiotic-antimycotic solution). All cells were kept in a water-jacketed incubator (model 3546, Forma Scientific, Inc., Marietta, OH, USA) maintained at 37° C. and an atmosphere of humidified air with 5% CO2. Medium was replaced every other day until cells reached the 80-90% confluence desired for re-plating or culturing mature, polarised barrier models.
When confluent, cells were seeded on Transwell® filters (12 mm diameter, 0.4 μm pore size; Corning Life Sciences, Holland) at 10^5 cells/cm^2. […]
Three polarised epithelial in-vitro tissue models, including lung epithelium (Calu-3), retinal pigment epithelium (ARPE-19) and intestinal epithelial (Caco-2) were used to study the efficiency of 200 μM 3OC12-HSL as a paracellular permeability enhancer for three different drugs: bevacizumab, aflibercept and doxorubicin (applied concentrations 250 μg/mL). The amount of drugs transported was determined via the conversion of fluorescence intensity to amount (μg or ng), using calibration curves constructed via serial standard dilutions. […]
Permeability experiments were initiated by applying 0.5 mL of the test solutions to the apical side of the cells (donor compartment of the Transwell®). […] Drug permeability was determined by sampling the basolateral solution at regular time intervals. […]

ex-vivo rat eyes = system: ex-vivo rat eyes
Method: In order to investigate the efficacy of 3OC12-HSL as drug delivery enhancer in intact tissue, bevacizumab (250 μg/mL: […]) and aflibercept (40 mg/mL: 348 μM) were applied with and without 3OC12-HSL to ex-vivo rat eyes, and the distribution of drugs was visualised within sagittal ocular cryosections by confocal microscopy. A further set of experiments tested efficacy of 3OC12-HSL via ex vivo porcine skin.
Six hooded rats with pigmented eyes, weighing 280-300 g and aged 7-8 weeks were provided by Bio-Support Unit at the Queen's Medical Centre, Nottingham. Experiments were designed to be performed ex-vivo, immediately post-sacrifice, during experiments supporting other studies. Tested therapies (bevacizumab (250 μg/mL), aflibercept (250 μg/mL) with/without 3OC12-HSL (200 μM) were immediately applied post-sacrifice in (50 μL) to the corneal surface of each animal for a period of 1 hour, before being washed off using ice-cold PBS. The eyeballs were enucleated, immersed in OCT, and flash-frozen in isopentane cooled by liquid N2 before being stored at −80° C. for further processing.
OCT-embedded eyes were cut into 15 μm tissue sections using a cryostat (Leica 3050) and mounted on gelatin-coated slides, at cutting temperatures between −15 and −23° C. […]

Calu-3 cell layers = test: FD4 permeability and TEER of polarised Calu-3 cell layers; format: cell-based, human
Calu-3 cells = test: MTS assay of metabolic activity / cell viability; format: cell-based, human; conditions: 5 nM to 200 μM, 6 hours
Method: To assess 3OC12-HSL and C7 PQS molecules cytotoxicity on cell viability of Calu-3 cell layers and to monitor short-term cytotoxicity during experiments, Calu-3 cells were treated with 3OC12-HSL and C7 PQS, at concentrations 5 nM, 1 μM, 50 μM, 100 μM and 200 μM, for 6 hours. At the end of the treatment, cell viability (through measuring metabolic activity) of cultures was determined by chromogenic MTS assay.
The viability of Calu-3 cells was determined by a chromogenic MTS method based on the measuring of mitochondrial respiration, assessed by the reduction of 3-(4,5-dimethylthiazol-2-yl)-5-(3-carboxymethoxyphenyl)-2-(4-sulfophenyl)-2H-tetrazolium to formazan. Calu-3 cells were cultured in a 96-well plate (CellTiter 96® Aqueous, Promega) at a density of 10^4 cells per well and incubated at 37° C., 5% CO2 for 24 hours. After 24 hours, the medium was replaced with 100 μl of test compounds dissolved in HBSS and then cells were incubated for 6 hours. HBSS and Triton X-100 (0.1% v/v in HBSS) were used as the negative and positive controls respectively. Bathing solutions were then aspirated and cells washed with PBS. Then culture medium (100 μl at 37° C.) plus MTS reagent (20 μl) were added into each well and cells were incubated for 2 hours. Absorbance at 492 was measured using a Dynex absorbance microplate reader (Dynex Technologies, USA) and converted into a percentage metabolic rate.

MMP = test: Fluorogenic MMP activity assay; format: cell-based, human
Method: FIG. 5: High-throughput MMP assay (MMP Activity Assay Kit (Fluorometric-Red), Abcam #ab112147) showing the normalised accumulation slope of FRET-based signal (Ex540: Em590 nm) read at 5 minute intervals for one hour in adherent Calu-3 cells cultured in glass-bottomed 96-well plates using a SpectraMax i3x/Biomek FXPP high-throughput platform. Each experiment was conducted in triplicate (error bars). Signal accumulation over time in each well was linearly fitted and the gradient of each fit was scaled against the gradient of the relevant positive control wells, to which active MMP was added directly (mixed isoforms, […]), to obtain the normalised accumulation slope.
To investigate the involvement of MMP in the disruption of tight junctions observed in the presence of 200 μM 3OC12-HSL and C7 PQS, a fluorogenic MMP activity assay was performed, using the Amplite™ Universal Fluorimetric MMP Activity Assay Kit. This kit is designed to check the general activity of a MMP enzyme.
Following treatment with 3OC12-HSL and C7 PQS respectively, the conditioned media were collected every hour from apical chamber and MMP activity was determined by using Amplite™ Universal Fluorimetric MMP Activity Assay Kit Green Fluorescence according to the manufacturer's instructions.
A fluorogenic MMP activity assay was carried out in the same manner on further agents.

ZO-1 = ZO-1 immunostaining and confocal microscopy of Calu-3 cell layers; format: cell-based, human; conditions: 200 μM, one hour, vs vehicle 0.15% DMSO
Method: To visualise the effect of 3OC12-HSL and C7 PQS on tight junction integrity in Calu-3 cell layers, ZO-1, immunostaining and confocal microscopy was performed on cell layers treated by 200 μM 3OC12-HSL and C7 PQS and control (0.15% DMSO in HBSS) for one hour. Confluent cell monolayers were washed with PBS and fixed in 4% paraformaldehyde in PBS for approximately 10 min at room temperature. Cells were then washed 3 times with PBS and permeabilised by incubating with Triton X-100 (0.1% v/v in PBS) for 10 min. Cells were then washed with PBS, followed by the application of 1% BSA/PBS for approximately 1 hour. Thereafter, BSA/PBS solution was aspirated and replaced with mouse, anti-human ZO-1 (primary) antibody, diluted in 1% BSA/PBS to a final concentration of 100 μg/ml. Cell samples were incubated with the primary antibody for 2 hours. The primary antibody solution was then removed and cells washed with PBS (5 times). FITC-labelled goat, anti-mouse (secondary) antibody, diluted according to manufacturer's instructions in 1% BSA/PBS was then applied to the cells for 1 hour. The secondary antibody solution was then aspirated and cells washed with PBS three times. […]

Compound | Effective in enhancing translocation (Calu-3) | other results
CCCCCCCCCC(=O)CC(=O)Nc1nccs1 [OdDAT] | – | TEER (electrical resistance) upon agent exposure [1]: temporarily reduced; mAb (Mepolizumab) delivery upon agent exposure [1]: increased
CCCCC(=O)CC(=O)NC1CCOC1=O (stereo not drawn) [OC7-HSL] | Yes | –
CC(C)CCCCCCc1[nH]c2ccccc2c(=O)c1O [7Me-C8-PQS] | Yes | –
CCCCCCCCCCCc1[nH]c2ccccc2c(=O)c1O [C11 PQS] | Yes | –
CCCCCCCCCc1[nH]c2ccccc2c(=O)c1CN(C)C [3-C1NMe2 C9 PQS] | No | –
Cc1[nH]c2ccccc2c(=O)c1O [C1 PQS (Me PQS)] | Yes | –
CCCCCCCCCc1[nH]c2ccccc2c(=O)c1O [C9 PQS] | Yes | –
COc1cccc2c1C(=O)c1c(O)c3c(c(O)c1C2=O)C[C@@](O)(C(=O)CO)C[C@@H]3O[C@H]1C[C@H](N)[C@H](O)[C@H](C)O1 [Doxorubicin, reference compound] | – | amount of drug transported into the basolateral chamber (ARPE-19 cell layers; with 3OC12-HSL (200 μM)): 62.33 µg; amount of drug transported into the basolateral chamber (ARPE-19 cell layers; without 3OC12-HSL): 9.85 µg
CCCCCC/C=C\CCCC(=O)N[C@H]1CCOC1=O [5-cis-C12 HSL] | No | –
Aflibercept: recombinant fusion protein of VEGF-binding portions of human VEGF receptors 1 and 2 and Fc of human IgG1 | – | fluorescence in eye sections (CLSM) (ex-vivo rat eyes): No fluorescence was detected
CCCCCNC(=O)c1[nH]c2ccccc2c(=O)c1O [PQS-C5-Amide] | No | –
CCCCCCCc1cc(O)c2ccccc2n1 [HHQ] | Yes | –
CCCCCCCCCC1=Nc2ccccc2C(=O)C1 [HNQ] | Yes | –
CCCCCC/C=C/Cc1[nH]c2ccccc2c(=O)c1C [3-Me C9: 2. Quinolone] | No | –
CCCCCCC/C=C\C(=O)O [Cis-2-decenoic acid, cis-2-decenoic acid] | Yes | –
CCCCCCCc1[nH]c2ccccc2c(=O)c1O [C7 PQS, 2-n-heptyl-3-hydroxy-4 (1H)-quinolone] | Yes | paracellular passage / flux of FD4 from apical to basolateral chamber (Calu-3 cell layers; 200 μM (3OC12-HSL: 200 μM or 1 μM)): increased the flux of FD4; TEER after 7 hours (Calu-3 cell layers; 200 μM, recovery, SEM+/−20): 510 Ωcm^−2; time after which TEER started increasing / cell layer integrity began to recover (Calu-3 cell layers; during exposure): 5 h; cytotoxic effect on cell viability within epithelial layers (Calu-3 cells): do not have an adverse cytotoxic effect; MMP activation in apical samples taken at one-hour intervals (MMP; 200 μM, p<0.01, no fluorescence in control samples): significant MMP activation; period over which MMP activation increased before starting to reduce (MMP; samples taken hourly from apical chamber): 4 h; ZO-1 distribution at tight junctions (ZO-1): considerable dislocation of ZO-1 proteins
CCCC(=O)NC1CCOC1=O (stereo not drawn) [C4 HSL (BHL), N-butyl-homoserine-lactone] | – | MMP activation (further MMP screening) (MMP; assay carried out in the same manner on further agents): cause MMP activation
CCCCCCCCCCCc1cc(=O)c2ccccc2[nH]1 [UHQ] | Yes | –
CCCCCCCc1[nH]c2cc(F)ccc2c(=O)c1O [7F-C7 PQS] | – | TEER (electrical resistance) upon agent exposure [1]: temporarily reduced; mAb (Mepolizumab) delivery upon agent exposure [1]: increased
CCCCCCCc1cc(O)c2ccccc2[n+]1[O-] [C7 HNQ N-oxide] | Yes | –
